# Patent US20200323954A1, “METHODS AND COMPOSITIONS FOR REDUCING GUT ISCHEMIA/REPERFUSION-INDUCED INJURY” (PanTheryx, Inc., priority 2019, published 2020)
# “Also recorded” adds a separate entry of the source.
# Columns and labels:
# AGS cells = assay: Lactate dehydrogenase (LDH) cell damage assay after H/R; format: cell-based, human
# Method: (§1) Hypoxia (Ischemia)/Normoxia (Reperfusion) (H/R) protocols for in vitro studies: For all experiments AGS, Caco-2 and RIE1 cells were set up in plates as described in specific methods. Cells were used at 70-80% confluence for cell injury/death assessment and as confluent monolayers for permeability studies. To induce “ischemia”, cells were placed in a hypoxic incubator (2% 02) for specified time and to mimic reperfusion, cells were placed back in a normoxic (21% 02) incubator for specified time. All treatments were duplicated in a second set of identical plates under normoxic conditions throughout the same test period as controls. To determine optimum conditions for the in vitro studies, pilot studies were performed.
# Lactate dehydrogenase (LDH) assay: Cell damage was assessed using the activity of LDH released into the cell culture medium. LDH is a cytosolic enzyme present in many different cell types. Plasma membrane damage releases LDH into the cell culture media. At the end of the H/R period, supernatant was collected from all wells and LDH activity determined using a Pierce LDH Cytotoxicity Assay Kit (Thermo Fisher Scientific, Hemel Hempstead, UK) following manufacturer's instructions. Results are expressed as LDH activity and presented as mean+/−SEM of six wells.
# Example 1A: Dose response study: To examine the effect of PSTI on H/R-induced cell injury in vitro, cells were set up in 96 well plates and pre-incubated in SFM containing glucose, with or without 5, 10 or 15 μg/ml PSTI for 1 hour (i.e. PSTI pre-treatment). These concentrations of PSTI were chosen based on previous studies examining cell migration (Marchbank et al., 2007, Am J Pathol 171(5):1462-73). The medium was replaced with SFM without glucose and placed in the hypoxia incubator for 4 hours. […]
# Example 1B: Efficacy of PSTI given pre-, during- or post-hypoxic period. […] Cell Viability (MTT assay) and cell damage (LDH assay) were assessed. […] Cell Viability (MTT assay) and cell damage (LDH assay) were assessed.
# [1] = system: polarised Caco-2 monolayers; assay: Permeation of horseradish peroxidase (HRP) through the monolayer after H/R; format: cell-based, human
# Method: as §1
# The effect of […] PSTI pre-treatment on transepithelial permeability induced by 1 hour of hypoxia followed by 24 hours of normoxia was examined using Caco-2, human polarizing colonic adenocarcinoma cells utilizing two different previously published methods according to Davison et al., 2016, Am J Nutr 2016; 104:526-536. One method determined change in transepithelial electrical resistance (TEER) and the other method analyzed the passage of horseradish peroxidase (HRP) across the epithelial layer. HRP (type II) is a non-digestible macromolecular protein (MW=44 kD) and has previously been used as a tracer in evaluation of epithelial permeability. Each monolayer had TEER and HRP permeability assessed at baseline, at the end of 1 h incubation in an hypoxic (ischemic) chamber and at the end of a 24 h reoxygenation (reperfusion) period. Measurements were taken in triplicate from 4 wells per treatment. Results are expressed as mean+/−SEM.
# Caco-2 cells = assay: Apoptotic and protective pathways after H/R in Caco-2 cells; format: cell-based, human
# Method: as §1
# Cleared cell lysates from I/R experiments in Caco-2 cells were assessed for levels of the apoptotic molecules Caspase 3 (FIG. 5A), Caspase 9 (FIG. 5I), Baxα (FIG. 5B) and Bcl2 (FIG. 5C). HIF1α (FIG. 5Δ), VEGF (FIG. 5E), hSP70 (FIG. 5F), ICAM1 (FIG. 5G) and the tight junction molecules ZO1 (FIG. 5H) and Claudin1 (FIG. 5J) levels were also analysed.
# DSS-induced colitis = conditions: rats, PSTI administration; cited from earlier work
# [2] = system: human colonic carcinoma HT29 cells; conditions: HT29 cells in vitro; cited from earlier work
# [3] = system: lipopolysaccharide-stimulated dendritic cells; conditions: lipopolysaccharide-stimulated dendritic cells in vitro; cited from earlier work
# NSAID-induced apoptosis = conditions: cited from earlier work
# renal tissue = assay: Gut I/R model, renal tissue; conditions: kidney, I/R + PSTI 20 μg/kg ip, mean ± SEM
# [4] = system: 90% small intestine (SI) tissue (non-clamped segment of bowel); assay: Gut I/R model, non-clamped 90% SI site; conditions: 90% SI non-clamped, mean ± SEM
# [5] = Caco-2, 1 h or 4 h hypoxia + 24 h normoxia, PSTI 1 h before, vs H/R without PSTI
# [6] = normoxic, any of the cell lines (data not shown)
substance,measurement,setting,value
pancreatic secretory trypsin inhibitor (DSLGREAKCYNELNGCTKIYDPVCGTDGNTYPNECVLCFENRKRQTSILIQKSGPC; listed as Homo sapiens) [PSTI],reduction of the rise in LDH,"AGS cells; AGS, 4 h hypoxia + 24 h reperfusion, PSTI 10 μg/ml 1 h before hypoxia",37%±2%
same,effect on cell damage (LDH activity) after H/R vs serum free medium,AGS cells; PSTI added before H/R,significantly decreased cell damage
same,LDH of cells not exposed to H/R,"AGS cells; normoxia, PSTI 10 microgram per ml",no change in viability or LDH; also recorded: no change in % LDH levels
same,truncation of the increase in HRP permeability,"[1]; Caco-2, end of the 1 h hypoxic period",about 54%
same,truncation of the increase in HRP permeability,"[1]; Caco-2, final H/R time point (1 h hypoxia + 24 h)",37%
same,truncation of the 300% increase in transepithelial permeability (horse radish peroxidase translocation),"[1]; Caco-2 monolayers, hypoxia/reperfusion 1 h+24 h, p<0.01",50%
same,"I/R-induced change in HRP permeability, medium alone vs PSTI",[1]; PSTI added to the medium prior to I/R,significantly greater increases in permeability compared to those that had PSTI added
same,HRP permeation under normoxic conditions,[1]; normoxia,no effect on TEER or HRP permeation
same,further increase in HIF1α above the 42% increase induced by H/R,"Caco-2 cells; 4 h hypoxia+24 h reoxygenation, cells pre-treated with PSTI (FIG. 5D)",11%
same,further increase in VEGF above the 34% increase caused by H/R,"Caco-2 cells; 4 h hypoxia+24 h reoxygenation, co-presence of PSTI (FIG. 5E)",15%
same,increase in hSP70 after H/R with PSTI,"Caco-2 cells; 4 h hypoxia+24 h reoxygenation, H/R alone about 63% (FIG. 5F)",about 80%
same,Baxα activity,Caco-2 cells; [5],significantly truncated; also recorded: significantly decreased Baxα activity
same,Bcl2 activity,Caco-2 cells; [5],this effect was truncated; also recorded: significantly attenuated reduction in Bcl2 activity
same,Caspase 3 activity,Caco-2 cells; [5],significantly decreased Caspase 3 activity
same,Caspase 9 activity,Caco-2 cells; [5],significantly decreased Caspase 9 activity
same,Claudin1 activity,Caco-2 cells; [5],significantly attenuated reduction in Claudin1 activity
same,HIF1α activity,Caco-2 cells; [5],significantly increased HIF1α activity
same,ICAM1 activity,Caco-2 cells; [5],not influenced by the presence of PSTI; also recorded: did not significantly affect ICAM1 activity
same,VEGF activity,Caco-2 cells; [5],significantly increased VEGF activity
same,ZO1 activity,Caco-2 cells; [5],significantly attenuated reduction in ZO1 activity
same,hSP70 activity,Caco-2 cells; [5],significantly increased hSP70 activity
same,truncation of the H/R-induced fall in ZO1 and Claudin1,"Caco-2 cells; after 4 hours of hypoxia (FIG. 5H, 5J)",about 50%
same,"Caspase 3, 9, Baxα or Bcl2 under normoxic conditions",Caco-2 cells; [6],"no effect on Caspase 3, 9, Baxα or Bcl2"
same,HIF1α or VEGF under normoxic conditions,Caco-2 cells; [6],no effect on HIF1α or VEGF
same,ICAM1 levels under normoxic conditions,"Caco-2 cells; normoxic, any of the cell lines tested (data not shown)",no effect on ICAM1 levels
same,DSS-induced colitis,DSS-induced colitis,reduces NSAID-induced gastric injury and DSS-induced colitis
same,cell migration,[2],stimulate cell migration
same,proliferation,[2],not proliferation
same,cytokine release of TNFα and IL-12,[3],reduced cytokine release of TNFα and IL-12
same,NSAID-induced apoptosis,NSAID-induced apoptosis,reduces NSAID-induced apoptosis
same,Baxα,renal tissue,5.61 ± 0.63 pg/μg total protein
same,Bcl2,renal tissue,66.37 ± 4.89 pg/μg total protein
same,Caspase 3 activity,renal tissue,0.069 ± 0.019 Change in absorbance
same,Caspase 9 activity,renal tissue,0.053 ± 0.010 Change in absorbance
same,Claudin 1,renal tissue,0.154 ± 0.016 pg/μg total protein
same,MDA,renal tissue,0.47 ± 0.047 nmol/μg of protein
same,ZO1,renal tissue,0.151 ± 0.008 pg/μg total protein
same,hSP70,renal tissue,36.6 ± 2.96 pg/μg total protein
same,Histological score (0-5),"[4]; I/R + PSTI 20 μg/kg ip 1 h before clamping, 30 min ischemia/3 h reperfusion",0.142 ± 0.142
same,Bcl2,[4]; I/R + PSTI 20 μg/kg ip,5.55 ± 1.00 pg/μg total protein
same,Caspase 3,[4]; I/R + PSTI 20 μg/kg ip,0.021 ± 0.007 Change in absorbance
same,Caspase 9,[4]; I/R + PSTI 20 μg/kg ip,0.014 ± 0.00052 Change in absorbance
same,Claudin 1,[4]; I/R + PSTI 20 μg/kg ip,0.152 ± 0.014 pg/μg total protein
same,ZO1,[4]; I/R + PSTI 20 μg/kg ip,0.17 ± 0.008 pg/μg total protein
